Tests used:
[1] = target: T1, rNTS2 receptor (Rattus norvegicus, UniProt Q63384); assay: NTS2 FLIPR calcium mobilization assay, agonist mode; type: cell-based; conditions: for agonist behaviour in the NTS2 FLIPR assay (calcium release): CHO cell line stably expressing rNTS2, FLIPR Tetra, pilot study
T1 sequence (Q63384 1-416): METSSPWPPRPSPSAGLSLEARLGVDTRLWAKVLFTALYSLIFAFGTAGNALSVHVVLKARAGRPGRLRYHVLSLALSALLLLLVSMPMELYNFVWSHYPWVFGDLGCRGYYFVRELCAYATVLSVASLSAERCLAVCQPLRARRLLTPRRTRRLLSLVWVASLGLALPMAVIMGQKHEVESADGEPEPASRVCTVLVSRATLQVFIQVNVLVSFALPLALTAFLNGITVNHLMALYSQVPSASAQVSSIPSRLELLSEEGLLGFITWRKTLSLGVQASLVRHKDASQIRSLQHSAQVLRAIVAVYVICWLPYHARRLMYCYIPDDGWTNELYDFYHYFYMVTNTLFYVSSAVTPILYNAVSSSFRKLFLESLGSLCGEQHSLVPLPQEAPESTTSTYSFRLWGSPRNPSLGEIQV

[2] = target: T1, rNTS2 receptor; assay: NTS2 FLIPR calcium mobilization assay, antagonist mode; type: cell-based; conditions: for type of antagonism of 3b in the Ke experiment at NTS2: Ke assays against dose-response curves of control agonist 3b
[3] = target: T1, rNTS2 receptor; assay: Competitive binding assay versus [125I]NT at NTS2; conditions: ratio of Ki values, versus compound 13
[4] = target: NTS1 (Rattus norvegicus, UniProt P20789); assay: NTS1 FLIPR assay; type: cell-based; conditions: data not shown
Chain of NTS1 (P20789 whole entry): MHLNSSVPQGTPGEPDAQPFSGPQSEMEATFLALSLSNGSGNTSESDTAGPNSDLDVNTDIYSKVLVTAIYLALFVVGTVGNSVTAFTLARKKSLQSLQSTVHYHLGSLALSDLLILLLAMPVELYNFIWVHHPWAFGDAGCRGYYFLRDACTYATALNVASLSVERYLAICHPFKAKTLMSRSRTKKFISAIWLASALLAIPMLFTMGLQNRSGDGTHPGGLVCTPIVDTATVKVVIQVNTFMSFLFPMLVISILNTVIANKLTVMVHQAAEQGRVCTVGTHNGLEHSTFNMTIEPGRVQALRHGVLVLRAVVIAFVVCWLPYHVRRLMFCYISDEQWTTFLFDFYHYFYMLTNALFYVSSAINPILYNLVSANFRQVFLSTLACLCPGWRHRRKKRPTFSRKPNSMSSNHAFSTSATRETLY

## COc1cccc(OC)c1-c1cc(C(=O)NC2(C(=O)O)C3CC4CC(C3)CC2C4)nn1-c1ccnc2cc(Cl)ccc12 (stereo not shown) [3a]
[1]
  agonist behaviour in the NTS2 FLIPR assay (calcium release): full agonists

## COc1cccc(OC)c1-c1cc(C(=O)NC2(C(=O)O)C3CC4CC(C3)CC2C4)nn1-c1ccc(C(=O)N(C)CCCN(C)C)cc1C(C)C (stereo not shown) [3b]
[1]
  agonist behaviour in the NTS2 FLIPR assay (calcium release): full agonists

## C[C@@H]1CN([C@H]2CC[C@](C#N)(c3ccc(F)cc3)CC2)CC[C@]1(C(=O)O)c1ccccc1 [Levocabastine, levocabastine]
[1]
  agonist behaviour in the NTS2 FLIPR assay (calcium release): potent partial agonist activity
[1]; read-out: FLIPR assay NTS2 Emax
  Emax: 14 to 16%

## Cc1ccc(S(=O)(=O)Nc2ccc3c(c2)c(C(=O)C(F)(F)F)cn3CC(=O)N[C@@H](CC(C)C)C(=O)O)cc1 [compound 5, N-{[5-{[(4-Methylphenyl)sulfonyl]amino}-3-(trifluoroacetyl)-1H-indol-1-yl]acetyl}-L-leucine]
[2]
  type of antagonism of 3b in the Ke experiment at NTS2: insurmountable antagonist activity
[2]; ratio of IC50 values, versus compound 13
  fold more active than 13 in the NTS2 FLIPR assay (antagonist activity): 90 fold
[2]; ratio of IC50 values, versus endogenous ligand NT
  fold more active than NT in the NTS2 FLIPR assay: ~3 fold
[3]
  fold boost to NTS2 binding affinity versus 13: 7.5 fold
[4]
  activity in the NTS1 FLIPR assay: Neither of the test compounds (5 or 13) showed activity

## Cc1ccc(S(=O)(=O)Nc2ccc3c(ccn3CC(=O)N[C@@H](CC(C)C)C(=O)O)c2)cc1 [compound 13, N-[(5-{[(4-Methylphenyl)sulfonyl]amino}-1H-indol-1-yl)acetyl]-L-leucine]
[1]; single concentration 10 μM
  NTS2 agonist activity in library screen: devoid of NTS2 agonist activity
[2]
  type of antagonism of 3b in the Ke experiment at NTS2: insurmountable
[4]
  activity in the NTS1 FLIPR assay: Neither of the test compounds (5 or 13) showed activity
[4]; single concentration 10 μM
  activity at NTS1 in library screen: no activity at NTS1
